Assays:
SelH = SelH (Homo sapiens, UniProt Q8IZQ5, U44C); assay: Surface plasmon resonance (SPR) detection of affinity between compounds and SelH; assay type: binding
From the text: A Cys-deficient Escherichia coli expression system was adopted, which is an effective method to prepare selenoprotein found in recent years. Itsbasic principle is as follows: the characteristic that Cys transfer RNA (tRNACys) can bind to Sec was utilized, and a culture medium which is lack of cysteine (Cys) and rich in Selenium cysteine (Sec) was used for culturing a strain, so that Sec was successfully incorporated into newly expressed protein. According to existing literature reports, a human SelH gene sequence was obtained. Selenocysteine of the SelH is in the middle of the sequence and was terminated here during prokaryotic expression, so that the selenocysteine was mutated from a triple codon TGA of the selenocysteine into TGC, which was synthesized by the Sangon Bioengineering (Shanghai) Co., Ltd. In addition, the adopted SPP system was a single protein production system, and a principle of the SPP system was to induce MazF enzyme (mRNA interfering enzyme for cutting RNA on an ACA nucleotide sequence) to cause growth arrest of thalli. The enzyme can specifically recognize and cut the ACA sequence and prevent synthesis of other background proteins in bacteria. Therefore, when mRNA of the desired target protein was encoded, if the mRNA can be designed into a form lacking an ACA base triplet according to an amino acid encoding rule and was induced at 15° C. by using a pCold vector in cells expressing MazF, the mRNA was not enzymatically hydrolyzed, only a protein derived from the mRNA was generated, and there was little synthesis of other cell proteins.
A pColdI-selH plasmid was transformed into BL21 (DE3) Cys-deficient Escherichia coli, so as to obtain a defective expression bacterium pColdI-selH. Sec was added during culture, making it become selenium-containing protein. The target protein was purified by using Ni^2+ column chelating chromatography, and impure protein was eluted by using an imidazole eluent of different concentrations to finally obtain the target protein. Soluble SelH protein was finally obtained, and SDS-PAGE (sodium dodecyl sulfate polyacrylamide gel electrophoresis) analysis was carried out.
A surface plasmon resonance (SPR) method was adopted to detect the interaction condition of a small molecule and a protein, so that the screening of drugs targeting SelH was carried out.
Purified SelH was diluted into a 50 μg/mL protein solution by using 10 mM sodium acetate with a pH value of 5.5, the purified SelH was fixed onto a CM5 chip by an amino coupling method by using Biacore 8K (GE Healthcard, Sweden), and an RU value was recorded.
An isopentenyl or isovaleryl substituted coumarin compound, or a triterpenoid compound with an isopentenyl-like structure (the compound specifically includes aurapten, protopanaxadiol, iso-imperatorin, decursin, osthol, notoginsenoside R1 and shionon) was dissolved in 100% DMSO to be prepared into solutions containing 5% DMSO of different concentrations (0, 31.25, 62.5, 125, 250 and 500 μM) by using a 1.05×PBS-P^+ buffer solution (GE Healthcare, obtained by diluting 10×PBS-P^+).
A single-cycle kinetics method was adopted, the 1.05×PBS-P^+ buffer solution containing 5% DMSO was used as a Running Buffer, different compounds of different concentrations flowed through the SelH fixed onto the chip, wherein the binding time was 120 s, and the change condition of the RU value was recorded. An equilibrium dissociation constant (KD) was calculated by using software in Biacore 8K so as to evaluate the binding affinity between the protein and the compounds. The SPR detection result of the affinity between compounds and SelH in Embodiment 2 of the present disclosure is as shown in FIG. 1A-G, and the result statistics is as shown in Table 1.
(1) Screening of small molecule drugs by taking SelH as a target A surface plasmon resonance (SPR) method was adopted to detect the interaction condition of a small molecule and a protein, so that the screening of drugs targeting SelH was carried out. […]

LN229 and U251 cells = assay: Cell cycle analysis by flow cytometry (EdU and DAPI), glioblastoma cells; assay type: cell-based; conditions: LN229 and U251, compared with control cells
Procedure: For monitoring cell-cycle arrest of ISP I-treated cells, Click-iT EdU Flow Cytometry Assay Kits were used, a product of ThermoFisher Scientific. Cells were co-cultured with EdU at a concentration of 10 μM for 1 hour. After fixation and permeabilization, EdU-positive cells were labeled with Alexa Fluor 647 fluorescein. DAPI also was used for measuring total DNA content to identify differences in cell cycle phases. Data were collected by means of a BD LSRFortessa flow cytometer using FlowJo software. Cells that are positive with EdU and DAPI were in S-Phase of the cell cycle.

786-O and RCC4 cells = assay: Annexin V apoptosis analysis, RCC cells; assay type: cell-based
Procedure: Cell viability was assessed similarly via CKK8 analysis. […] (FIG. 10C, D).
Cell apoptosis and cell cycle: Cells (2×10^5) were plated in 6-well plates and treated with different concentrations of ISP I. Then the cells were harvested and washed three times with PBS. Cells were resuspended in 100 μl binding buffer and were incubated with 5 μl APC-conjugated Annexin V working solution, a product of BD bioscience (Franklin Lakes, NJ USA), and 1 μl propidium iodide (PI), a product of Invitrogen, for 15 min at room temperature with protection from light. Data acquisition and quantification were processed with BD LSRFortessa flow cytometer, using FlowJo software (Ashland, OR USA).

SELH protein expression = SELH protein expression (Homo sapiens (Human), UniProt Q8IZQ5); assay: Western blot of SELH protein in ISP I-treated cells; assay type: cell-based
Sequence of SELH protein expression (Q8IZQ5 whole entry): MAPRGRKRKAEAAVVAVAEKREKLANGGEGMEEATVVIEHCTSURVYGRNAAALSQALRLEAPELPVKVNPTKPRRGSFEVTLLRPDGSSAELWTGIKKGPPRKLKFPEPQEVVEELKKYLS
From the text: (§1) A cycloheximide (CHX) chase assay was completed to assess ISP I's effect on SELH protein degradation.

IOMM xenograft = assay: IOMM meningioma subcutaneous xenograft model; assay type: in vivo, Nude mice; conditions: 35 mg/kg intraperitoneally daily, vs control
Procedure: For subcutaneous xenografts, NSG mice (6-8 weeks old) from the NCI-Frederick animal facility and Jackson Lab (Bar Harbor, ME USA) were injected with 5×10^6 to 1×10^7 cells subcutaneously in the flank. One week later, the tumor-bearing mice were randomly assigned to different groups and made the tumor volume baseline equivalent and treated with normal saline or Zenomycin (35 mg/kg) everyday intraperitoneally. Tumors were measured using a caliper, and volume was calculated.

[1] = test system: human non-small cell lung cancer cells A549
Procedure: Experimental Materials Human non-small cell lung cancer cells A549, mouse breast cancer cells 4T-1 and mouse melanoma B16-BL6 were purchased from American Type Current Collection (ATCC, Rockville, MD, USA). An RPMI-1640 culture solution containing 10% of fetal calf serum and 2% of glutamine was inoculated with the A549, 4T-1 and B16-BL6 cells, and the cells were incubated at 37° C. in a 5% CO2 incubator.
The compounds were dissolved in DMSO under a sterile condition, and the obtained solutions were diluted to required concentrations by using an RPMI 1640 culture solution, wherein the final concentration of the DMSO was less than 0.5%.
MTT reduction method is used.
A549, 4T-1 and B16-BL6 were used as adherent cells, adherent tumor cells in a logarithmic phase were selected, digested with pancreatin, and then prepared into a cell suspension of 5×10^4/ml with a culture medium containing 10% of calf serum, a 96-well culture plate was inoculated with the cell suspension, wherein each well contained 100 μl of the cell suspension, and incubation was carried out for 24 h at 37° C. and 5% CO2. Replacing was carried out with a new culture solution containing the samples to be detected of different concentrations in the experimental groups, replacing was carried out with a culture solution containing a same volume of solvent in the control group, three parallel wells were set in each group, and incubation was carried out for 48 hours at 37° C. and 5% CO2. The supernate was discarded, careful washing was carried out with PBS twice, 100 μl of a freshly prepared culture medium containing 0.5 mg/ml of MTT was added into each well, and incubation was continued to be carried out at 37° C. for 4 h. The supernatant was carefully discarded, 150 μl of DMSO was added, uniform mixing was carried out for 10 min by using a micro oscillator, and the optical density value was measured at 492 nm by using a microplate reader.
Tumor cell growth inhibition ratio (%)=[A492 (negative control)−A492 (dosing group)]/A492 (negative control)×100%
The median inhibitory concentration (IC50) of the sample is calculated.

SELH protein degradation = SELH protein degradation (Homo sapiens (Human), UniProt Q8IZQ5)
Sequence of SELH protein degradation (Q8IZQ5 whole entry): as above
From the text: as §1

Sequence of SelH (Q8IZQ5 with tags, fused parts or gaps U44C): as the sequence (Q8IZQ5 whole entry) above, with U44C counted along it

SMILES: CO[C@@H]1[C@@H](O[C@@H]2O[C@H](C)[C@@H](O[C@H]3C[C@@](C)(O)[C@@H](OC(=O)CC(C)C)[C@H](C)O3)[C@H](N(C)C)[C@H]2O)[C@@H](CC=O)C[C@@H](C)[C@@H](O[C@H]2CC[C@H](N(C)C)[C@@H](C)O2)/C=C/C=C/C[C@@H](C)OC(=O)C[C@H]1O [Isovalerylspiramycin I, 4″-isovalerylspiramycin I]
- Kd (SelH; SPR Biacore 8K, single-cycle kinetics, Table 3, read-out: KD binding of macrolides and cyclic peptides to SelH): 2480 nM
- binding activity to the SelH (in words) (SelH; ranking within the table's compounds): strongest
- cell distribution in cell cycle phases (LN229 and U251 cells): dose-dependent increase in the G0/G1 phase and a decrease in the S phase
- apoptosis (Annexin V) (786-O and RCC4 cells): dose-dependent apoptosis
- SELH protein expression (SELH protein expression; LN229 cells, different concentrations of ISP I): reduced SELH protein expression in LN229 cells in a dose-dependent manner
- SELH levels in glioblastoma cell lines (SELH protein expression; T98G, U118, LN229, U251, 10 μg/mL of ISP I for 24 hours): decreased SELH levels
- tumor size and weight, IOMM xenograft (IOMM xenograft): significantly reduced tumor size and weight
- A549 IC50 cytotoxicity [1]: 1.29 µg/mL
- SELH protein half-life (SELH protein degradation): reduced the SELH protein half-life
